Assay results as given in PubChem BioAssay AID248 (DTP/NCI, 2004).
Several values for one entry are separate records, joined by “and”; a condition that tells them apart may be missing. Equal values may be shown once. Toxic doses and inconclusive results are not listed.

System: L1210 leukemia ip in BDF1 mice, survival T/C
Assay: NCI In Vivo Anticancer Drug Screen. Data for tumor model L1210 Leukemia (intraperitoneal) in B6D2F1 (BDF1) mice
Details: higher = longer survival
Outline: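 Read-out is survival time, reported as the treated-group measurement over the vehicle-control measurement.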

[1] = endpoint: mean survival time, dose: 100.0 mg/kg/injection, schedule: Q01DX001 (ip), vehicle: saline
[2] = endpoint: mean survival time, dose: 200.0 mg/kg/injection, schedule: Q01DX001 (ip), vehicle: saline
[3] = endpoint: mean survival time, dose: 400.0 mg/kg/injection, schedule: Q01DX001 (ip), vehicle: saline
[4] = endpoint: mean survival time, dose: 100.0 mg/kg/injection, schedule: Q04DX002 (ip), vehicle: Klucel (hydroxypropylcellulose) (HPC)
[5] = endpoint: mean survival time, dose: 200.0 mg/kg/injection, schedule: Q04DX002 (ip), vehicle: Klucel (hydroxypropylcellulose) (HPC)
[6] = endpoint: mean survival time, dose: 100.0 mg/kg/injection, schedule: Q01DX009 (ip), vehicle: saline with Tween-80
[7] = endpoint: mean survival time, dose: 200.0 mg/kg/injection, schedule: Q01DX009 (ip), vehicle: saline with Tween-80
[8] = endpoint: mean survival time, dose: 400.0 mg/kg/injection, schedule: Q01DX009 (ip), vehicle: saline with Tween-80
[9] = endpoint: mean survival time, dose: 100.0 mg/kg/injection, schedule: Q01DX001 (ip), vehicle: carboxymethylcellulose (CMC)
[10] = endpoint: mean survival time, dose: 200.0 mg/kg/injection, schedule: Q01DX001 (ip), vehicle: carboxymethylcellulose (CMC)

In the case of `CC[n+]1ccccc1-c1ccc(NC(=O)c2ccc(C(=O)Nc3ccc(-c4ccccn4)cc3)cc2)cc1`, the T/C (endpoint: mean survival time, dose: 0.75 mg/kg/injection, schedule: Q01DX Z (ip), vehicle: saline) was 120 % of control, the T/C (endpoint: mean survival time, dose: 2.6 mg/kg/injection, schedule: Q01DX Z (ip), vehicle: saline) was 194 % of control and 213 % of control and the T/C (endpoint: mean survival time, dose: 2.9 mg/kg/injection, schedule: Q01DX001 (ip), vehicle: saline) was 116 % of control. For the same molecule, the T/C (endpoint: mean survival time, dose: 4.0 mg/kg/injection, schedule: Q01DX Z (ip), vehicle: saline) was 176 % of control, the T/C (endpoint: mean survival time, dose: 4.4 mg/kg/injection, schedule: Q01DX001 (ip), vehicle: saline) was 124 % of control and the T/C (endpoint: mean survival time, dose: 6.0 mg/kg/injection, schedule: Q01DX Z (ip), vehicle: saline) was 170 % of control. The T/C (endpoint: mean survival time, dose: 7.0 mg/kg/injection, schedule: Q01DX Z (oral), vehicle: saline) was 103 % of control, the T/C (endpoint: mean survival time, dose: 14.0 mg/kg/injection, schedule: Q01DX Z (ip), vehicle: saline) was 100 % of control and the T/C (endpoint: mean survival time, dose: 15.0 mg/kg/injection, schedule: Q01DX Z (oral), vehicle: saline) was 100 % of control. For the same molecule, the T/C (endpoint: mean survival time, dose: 20.0 mg/kg/injection, schedule: Q01DX001 (ip), vehicle: saline) was 164 % of control, the T/C (endpoint: mean survival time, dose: 22.0 mg/kg/injection, schedule: Q01DX Z (ip), vehicle: saline) was 102 % of control and the T/C (endpoint: mean survival time, dose: 30.0 mg/kg/injection, schedule: Q01DX Z (oral), vehicle: saline) was 102 % of control. The T/C (endpoint: mean survival time, dose: 35.0 mg/kg/injection, schedule: Q01DX Z (ip), vehicle: saline) was 88 % of control and the T/C (endpoint: mean survival time, dose: 40.0 mg/kg/injection, schedule: Q01DX001 (ip), vehicle: saline) was 153 % of control and 191 % of control.
`CCC(Cl)COP(=O)(OCC(Cl)CC)C(C)P(=O)(OCC(Cl)CC)OCC(Cl)CC` (configuration not stated) was tested, and the T/C (endpoint: mean survival time, dose: 62.5 mg/kg/injection, schedule: Q04DX003 (ip), vehicle: Klucel (hydroxypropylcellulose) (HPC)) was 96 % of control, the T/C (endpoint: mean survival time, dose: 125.0 mg/kg/injection, schedule: Q04DX003 (ip), vehicle: Klucel (hydroxypropylcellulose) (HPC)) was 97 % of control and the T/C (endpoint: mean survival time, dose: 250.0 mg/kg/injection, schedule: Q04DX003 (ip), vehicle: Klucel (hydroxypropylcellulose) (HPC)) was 96 % of control.
`CC(C)c1ccc(C(C2C(=O)CC(C)(C)CC2=O)C2C(=O)CC(C)(C)CC2=O)cc1` was tested, and the T/C [1] was 103 % of control, the T/C [2] was 109 % of control and the T/C [3] was 107 % of control.
In the case of `CCOC(C(=O)O)(c1ccccc1)c1ccccc1`, the T/C [4] was 97 % of control and the T/C [5] was 97 % of control.
For `CCN(C(=O)c1ccc2c3c(cccc13)C=C2)c1ccccc1`, the T/C [1] was 104 % of control, the T/C [2] was 98 % of control and the T/C [3] was 98 % of control.
With `C[N+](C)(C)CCCCCCCCCC[N+](C)(C)C` the T/C (endpoint: mean survival time, dose: 0.39 mg/kg/injection, schedule: Q04DX003 (ip), vehicle: saline with Tween-80) was 99 % of control, the T/C (endpoint: mean survival time, dose: 0.78 mg/kg/injection, schedule: Q04DX003 (ip), vehicle: saline with Tween-80) was 95 % of control and the T/C (endpoint: mean survival time, dose: 1.56 mg/kg/injection, schedule: Q04DX003 (ip), vehicle: saline with Tween-80) was 92 % of control.
`Cc1ccc(S(=O)(=O)Oc2ccc(N(CC(=O)O)S(=O)(=O)c3ccc(C)cc3)cc2)cc1` was tested, and the T/C (endpoint: mean survival time, dose: 100.0 mg/kg/injection, schedule: Q01DX001 (ip), vehicle: water) was 98 % of control, the T/C (endpoint: mean survival time, dose: 100.0 mg/kg/injection, schedule: Q04DX003 (ip), vehicle: water) was 94 % of control and the T/C (endpoint: mean survival time, dose: 200.0 mg/kg/injection, schedule: Q01DX001 (ip), vehicle: water) was 96 % of control. The T/C (endpoint: mean survival time, dose: 200.0 mg/kg/injection, schedule: Q04DX003 (ip), vehicle: water) was 88 % of control, the T/C (endpoint: mean survival time, dose: 400.0 mg/kg/injection, schedule: Q01DX001 (ip), vehicle: water) was 97 % of control and the T/C (endpoint: mean survival time, dose: 400.0 mg/kg/injection, schedule: Q04DX003 (ip), vehicle: water) was 96 % of control.
`NC(=O)OCC1OC(n2ccc(=O)[nH]c2=O)C(O)C1O` (configuration not stated) was tested, and the T/C (endpoint: mean survival time, dose: 100.0 mg/kg/injection, schedule: Q01DX005 (ip), vehicle: saline) was 105 % of control.
`CNCC(=O)NC(CO)C(=O)NC1C(C(N)=O)OC(n2ccc(N)nc2=O)C(O)C1O` (configuration not stated) was tested, and the T/C (endpoint: median survival time, dose: 0.75 mg/kg/injection, schedule: Q04DX003 (ip), vehicle: saline) was 96 % of control, the T/C (endpoint: median survival time, dose: 1.5 mg/kg/injection, schedule: Q04DX003 (ip), vehicle: saline) was 101 % of control and the T/C (endpoint: median survival time, dose: 3.0 mg/kg/injection, schedule: Q04DX003 (ip), vehicle: saline) was 94 % of control.
`CC(=O)Nc1ccc(OCCOC(=O)Nc2c(C)cccc2C)cc1` was tested, and the T/C [6] was 87 % of control, the T/C [7] was 92 % of control and the T/C [8] was 94 % of control.
In the case of `CN=C(N)c1ccc(NC(=O)c2ccc(C(=O)Nc3ccc(C(N)=NC)cc3)c(N)c2)cc1`, the T/C (endpoint: mean survival time, dose: 0.37 mg/kg/injection, schedule: Q01DX Z (ip), vehicle: water) was 104 % of control, the T/C (endpoint: mean survival time, dose: 0.75 mg/kg/injection, schedule: Q01DX Z (ip), vehicle: water) was 121 % of control and the T/C (endpoint: mean survival time, dose: 1.5 mg/kg/injection, schedule: Q01DX Z (ip), vehicle: water) was 123 % of control. The T/C (endpoint: mean survival time, dose: 1.75 mg/kg/injection, schedule: Q01DX Z (ip), vehicle: water) was 154 % of control, the T/C (endpoint: mean survival time, dose: 2.0 mg/kg/injection, schedule: Q01DX Z (ip), vehicle: carboxymethylcellulose (CMC)) was 189 % of control and the T/C (endpoint: mean survival time, dose: 4.0 mg/kg/injection, schedule: Q01DX Z (ip), vehicle: carboxymethylcellulose (CMC)) was 218 % of control. The T/C (endpoint: mean survival time, dose: 6.0 mg/kg/injection, schedule: Q01DX Z (ip), vehicle: carboxymethylcellulose (CMC)) was 184 % of control, the T/C (endpoint: mean survival time, dose: 6.7 mg/kg/injection, schedule: Q01DX001 (sc), vehicle: water) was 110 % of control and the T/C (endpoint: mean survival time, dose: 8.0 mg/kg/injection, schedule: Q01DX Z (ip), vehicle: carboxymethylcellulose (CMC)) was 170 % of control. The T/C (endpoint: mean survival time, dose: 10.0 mg/kg/injection, schedule: Q01DX001 (sc), vehicle: water) was 107 % of control, the T/C (endpoint: mean survival time, dose: 10.0 mg/kg/injection, schedule: Q01DX Z (ip), vehicle: carboxymethylcellulose (CMC)) was 107 % of control and the T/C (endpoint: mean survival time, dose: 12.0 mg/kg/injection, schedule: Q01DX Z (ip), vehicle: carboxymethylcellulose (CMC)) was 96 % of control. The T/C (endpoint: mean survival time, dose: 14.0 mg/kg/injection, schedule: Q01DX Z (ip), vehicle: carboxymethylcellulose (CMC)) was 88 % of control, the T/C (endpoint: mean survival time, dose: 15.0 mg/kg/injection, schedule: Q01DX001 (sc), vehicle: water) was 119 % of control and the T/C (endpoint: mean survival time, dose: 25.0 mg/kg/injection, schedule: Q01DX Z (oral), vehicle: water) was 110 % of control. The T/C (endpoint: mean survival time, dose: 50.0 mg/kg/injection, schedule: Q01DX Z (oral), vehicle: water) was 100 % of control, the T/C (endpoint: mean survival time, dose: 100.0 mg/kg/injection, schedule: Q01DX Z (oral), vehicle: water) was 97 % of control and the T/C (endpoint: mean survival time, dose: 200.0 mg/kg/injection, schedule: Q01DX Z (oral), vehicle: water) was 110 % of control.
For `C/C=C\C=N\NC(=O)C(=O)N/N=C/C=C\C`, the T/C [4] was 97 % of control, the T/C [5] was 91 % of control and the T/C (endpoint: mean survival time, dose: 400.0 mg/kg/injection, schedule: Q04DX002 (ip), vehicle: Klucel (hydroxypropylcellulose) (HPC)) was 112 % of control.
In the case of `O=c1nc2n(CC(O)C(O)C(O)CO)c3ccccc3cc-2c(=O)[nH]1` (configuration not stated), the T/C [1] was 90 % of control, the T/C [2] was 90 % of control and the T/C [3] was 93 % of control.
With `N#Cc1nc(CSc2ccc(Cl)cc2)cnc1N` the T/C (endpoint: mean survival time, dose: 100.0 mg/kg/injection, schedule: Q01DX001 (ip), vehicle: Klucel (hydroxypropylcellulose) (HPC)) was 95 % of control, the T/C (endpoint: mean survival time, dose: 200.0 mg/kg/injection, schedule: Q01DX001 (ip), vehicle: Klucel (hydroxypropylcellulose) (HPC)) was 92 % of control and the T/C (endpoint: mean survival time, dose: 400.0 mg/kg/injection, schedule: Q01DX001 (ip), vehicle: Klucel (hydroxypropylcellulose) (HPC)) was 89 % of control.
In the case of `Cc1ccc(NC(=O)Nc2cccc(Cl)c2C)cc1NC(=O)Nc1cccc(Cl)c1C`, the T/C [6] was 87 % of control, the T/C (endpoint: mean survival time, dose: 100.0 mg/kg/injection, schedule: Q04DX003 (ip), vehicle: saline with Tween-80) was 90 % of control and the T/C [7] was 87 % of control. The T/C (endpoint: mean survival time, dose: 200.0 mg/kg/injection, schedule: Q04DX003 (ip), vehicle: saline with Tween-80) was 91 % of control, the T/C [8] was 86 % of control and the T/C (endpoint: mean survival time, dose: 400.0 mg/kg/injection, schedule: Q04DX003 (ip), vehicle: saline with Tween-80) was 91 % of control.
In the case of `CC(=O)Nc1ccc(I)cc1C(=O)O`, the T/C (endpoint: mean survival time, dose: 50.0 mg/kg/injection, schedule: Q01DX001 (ip), vehicle: carboxymethylcellulose (CMC)) was 96 % of control, the T/C [9] was 91 % of control and the T/C [10] was 91 % of control.
In the case of `O=C(CF)N(O)c1ccc(/C=C/c2ccccc2)cc1`, the T/C [9] was 101 % of control and the T/C [10] was 113 % of control.
In the case of `[B-][N+](CC)(CC)c1ccccc1`, the T/C (endpoint: mean survival time, dose: 50.0 mg/kg/injection, schedule: Q01DX009 (ip), vehicle: saline with Tween-80) was 92 % of control, the T/C [6] was 95 % of control and the T/C [7] was 92 % of control.
